These molecules were tested against cGMP-specific 3',5'-cyclic phosphodiesterase (PDE5A) (Sus scrofa) (assay: Inhibitory activity against cyclic GMP-phosphodiesterase (PDE V) isolated from porcine aorta.).

Structure (SMILES)	IC50 [µM]
COc1cccc(CNc2ncnc3c(OC)c(OC)c(OC)cc23)c1 [(3-Methoxy-benzyl)-(6,7,8-trimethoxy-quinazolin-4-yl)-amine]	1.7
COc1cc2c(=O)n(CCc3ccc4c(c3)OCO4)cnc2c(OC)c1OC [3-(2-Benzo[1,3]dioxol-5-yl-ethyl)-6,7,8-trimethoxy-3H-quinazolin-4-one]	32
COc1cc2c(NCc3cccc([N+](=O)[O-])c3)ncnc2c(OC)c1OC [(3-Nitro-benzyl)-(6,7,8-trimethoxy-quinazolin-4-yl)-amine]	3.5
COc1cc(CNc2ncnc3c(OC)c(OC)c(OC)cc23)cc(OC)c1OC [(3,4,5-Trimethoxy-benzyl)-(6,7,8-trimethoxy-quinazolin-4-yl)-amine]	8.9
COc1cc2c(NCc3ccc4c(c3)CCC4)ncnc2c(OC)c1OC [Indan-5-ylmethyl-(6,7,8-trimethoxy-quinazolin-4-yl)-amine]	1.9
COc1cc2c(NCc3ccco3)ncnc2c(OC)c1OC [Furan-2-ylmethyl-(6,7,8-trimethoxy-quinazolin-4-yl)-amine]	4
COc1cc2c(NCc3ccc([N+](=O)[O-])cc3)ncnc2c(OC)c1OC [(4-Nitro-benzyl)-(6,7,8-trimethoxy-quinazolin-4-yl)-amine]	> 100
COc1cc2c(NCCCCCO)ncnc2c(OC)c1OC [5-(6,7,8-Trimethoxy-quinazolin-4-ylamino)-pentan-1-ol]	5.5
COc1cc2c(NCc3ccccc3)ncnc2c(OC)c1OC [Benzyl-(6,7,8-trimethoxy-quinazolin-4-yl)-amine]	2
COc1cc(OC)c(CNc2ncnc3c(OC)c(OC)c(OC)cc23)c(OC)c1 [(2,4,6-Trimethoxy-benzyl)-(6,7,8-trimethoxy-quinazolin-4-yl)-amine]	> 100

Molecules with a lower IC50, results first:

IC50 [µM]	Structure (SMILES)
1.3	COc1cc2c(NCc3cccc(Cl)c3)ncnc2c(OC)c1OC [(3-Chloro-benzyl)-(6,7,8-trimethoxy-quinazolin-4-yl)-amine]
0.65	CCCc1c(OCc2ccc3c(c2)OCO3)ccc2c(=O)cc(C(=O)O)oc12 [7-(Benzo[1,3]dioxol-5-ylmethoxy)-4-oxo-8-propyl-4H-chromene-2-carboxylic acid]
1.5	CCCc1c(OCCCOc2ccc3c(=O)cc(C(=O)O)oc3c2CCC)ccc(C(C)=O)c1O [7-[3-(4-Acetyl-3-hydroxy-2-propyl-phenoxy)-propoxy]-4-oxo-8-propyl-4H-chromene-2-carboxylic acid]
0.78	COc1cc2c(NCc3ccc4c(c3)OCCO4)ncnc2c(OC)c1OC [(2,3-Dihydro-benzo[1,4]dioxin-6-ylmethyl)-(6,7,8-trimethoxy-quinazolin-4-yl)-amine]
1	COc1ccc(CNc2ncnc3c(OC)c(OC)c(OC)cc23)cc1 [(4-Methoxy-benzyl)-(6,7,8-trimethoxy-quinazolin-4-yl)-amine]
1.3	COc1cc2c(NCc3ccc(Cl)cc3)ncnc2c(OC)c1OC [(4-Chloro-benzyl)-(6,7,8-trimethoxy-quinazolin-4-yl)-amine]
